Assay results from PMC12059368 (Biomolecules & Therapeutics, 2024).
Read-outs that look alike come from different tables or passages of the source.

Assays:
[1] = ref Popiolek et al., 2021; cited from earlier work
APAP-induced ALI rats = assay: Biochemical profile and tissue microscopy in APAP-induced ALI rats; type: in vivo, Sprague-Dawley rats
CYP3A1/2 = assay: Immunoblot of hepatic microsomes, CYP3A1/2; type: in vivo, rat; conditions: RVT rats
[2] = iv 10 mg/kg
in vivo = conditions: Sprague-Dawley, rat, plasma, iv, 10 mg/kg, CON rats (control)
[3] = ref Bannwarth et al., 2013, Dowty et al., 2014; cited from earlier work
[4] = In vitro metabolism of tofacitinib; type: in vitro ADME, rat; conditions: hepatic microsomes
[5] = intestinal microsomes, CON, RVT, ALI
[6] = Rat plasma protein binding of tofacitinib; type: in vitro ADME; conditions: for fraction unbound at 5 µg/mL: Sprague-Dawley, rat, plasma, Plasma protein binding
[7] = RVT 50 mg/kg ip, ALI-RVT vs ALI rats, plasma
[8] = ALI-RVT rats (RVT 50 mg/kg ip 1.5 h before APAP)
[9] = oral 20 mg/kg, ALI rats (APAP 400 mg/kg ip)
[10] = oral 20 mg/kg, ALI-RVT rats (RVT 50 mg/kg ip 1.5 h before APAP)
[11] = oral 20 mg/kg, ALI-RVT vs ALI rats
[12] = oral 20 mg/kg, CON rats (control)
[13] = oral 20 mg/kg, RVT rats (RVT 50 mg/kg ip)

For `CC(=O)Nc1ccc(O)cc1` [APAP, Acetaminophen], the Safe dose [1] is listed as “up to 2,000 mg per day”.

For `Oc1ccc(/C=C/c2cc(O)cc(O)c2)cc1` [RVT, Resveratrol], the “Liver and kidney histology” value (APAP-induced ALI rats; RVT 50 mg/kg ip, ALI-RVT rats) was “alleviated tissue damage”, the “Decrease in GOT” value (APAP-induced ALI rats; [7]) was 35.1% and the “Increase in total protein” value (APAP-induced ALI rats; [7]) was 4.50%. For the same molecule, the “Glutamate oxaloacetate transaminase levels” value (APAP-induced ALI rats; RVT administration in ALI rats) was “normalized” and the “CYP3A expression following RVT administration” value (CYP3A1/2) was “slightly decreased”.

For `C[C@@H]1CCN(C(=O)CC#N)C[C@@H]1N(C)c1ncnc2[nH]ccc12` [tofacitinib, Tofacitinib], the “Ae0-24 h (drug excreted unchanged in urine for 24 h)” value ([2]; ALI rats (APAP 400 mg/kg ip)) was 4.26 ± 2.87 % of dose, the “GI24 h (drug remaining in the gastrointestinal tract at 24 h)” value ([2]; ALI rats (APAP 400 mg/kg ip)) was 0.134 ± 0.0339 % of dose and the “Increase in AUC” value ([2]; ALI vs CON rats) was 207%. For the same molecule, the “Increase in terminal half-life” value ([2]; ALI vs CON rats) was 113%, the “Reduction in CL” value ([2]; ALI vs CON rats) was 64.7% and the “Reduction in CLNR” value ([2]; ALI vs CON rats) was 66.1%. The “Ae0-24 h (drug excreted unchanged in urine for 24 h)” value [2, 8] was 9.25 ± 3.62 % of dose, the “GI24 h (drug remaining in the gastrointestinal tract at 24 h)” value [2, 8] was 0.115 ± 0.0493 % of dose and the “Increase in Ae0-24 h” value ([2]; ALI-RVT vs ALI rats) was 117%. The “Increase in CL” value ([2]; ALI-RVT vs ALI rats) was 142%, the “Increase in CLNR” value ([2]; ALI-RVT vs ALI rats) was 141% and the “Increase in CLR” value ([2]; ALI-RVT vs ALI rats) was 398%. The “Reduction in AUC” value ([2]; ALI-RVT vs ALI rats) was 62.0%, the Shorter terminal half-life ([2]; ALI-RVT vs ALI rats) was 38.0% and the “Ae0-24 h (drug excreted unchanged in urine for 24 h)” value ([2]; CON rats (control)) was 5.30 ± 1.91 % of dose. For the same molecule, the “GI24 h (drug remaining in the gastrointestinal tract at 24 h)” value ([2]; CON rats (control)) was 0.108 ± 0.0444 % of dose, the “Ae0-24 h (drug excreted unchanged in urine for 24 h)” value ([2]; RVT rats (RVT 50 mg/kg ip)) was 7.31 ± 3.12 % of dose and the “GI24 h (drug remaining in the gastrointestinal tract at 24 h)” value ([2]; RVT rats (RVT 50 mg/kg ip)) was 0.147 ± 0.00805 % of dose. For the same molecule, the AUC (in vivo) was 4070 ng·h/mL, the “Fraction of the oral dose metabolized by hepatic CYP3A4 and CYP2C19” value [3] was “Approximately 70%” and the “CLint lower than in CON rats” value ([4]; ALI rats) was 69.6%. For the same molecule, the “CLint as % of CON values” ([4]; ALI-RVT rats) was 93.1%, the “Km values, comparison across all groups” value ([4]; CON, RVT, ALI, ALI-RVT) was “remained consistent” and the “Vmax, Km, and CLint, comparison across the four groups” value [5] was “no significant differences”. The “F values, comparison across the four groups” value (CON, RVT, ALI, ALI-RVT rats) was “similar”, the “Ae0-24 h (drug excreted unchanged in urine for 24 h)” value [9] was 3.04 ± 1.74 % of dose and the “GI24 h (drug remaining in the gastrointestinal tract at 24 h)” value [9] was 0.743 ± 0.917 % of dose. The “Decrease in CLR” value (oral 20 mg/kg, ALI vs CON rats) was 76.4%, the “Increase in AUC” value (oral 20 mg/kg, ALI vs CON rats, 20 mg/kg) was 181% and the “Ae0-24 h (drug excreted unchanged in urine for 24 h)” value [10] was 6.41 ± 1.86 % of dose. For the same molecule, the “GI24 h (drug remaining in the gastrointestinal tract at 24 h)” value [10] was 0.467 ± 0.243 % of dose, the “Decrease in AUC” value [11] was 41.4% and the “Increase in CLR” value [11] was 211%. For the same molecule, the “Ae0-24 h (drug excreted unchanged in urine for 24 h)” value [12] was 4.72 ± 2.03 % of dose, the “GI24 h (drug remaining in the gastrointestinal tract at 24 h)” value [12] was 0.791 ± 1.06 % of dose and the “Ae0-24 h (drug excreted unchanged in urine for 24 h)” value [13] was 3.96 ± 2.11 % of dose. For the same molecule, the “GI24 h (drug remaining in the gastrointestinal tract at 24 h)” value [13] was 0.295 ± 0.0618 % of dose, the GI24 h values (oral, both CON and ALI rats) was “less than 0.791 % of the oral dose” and the recovery at 30 min, 5 µg/mL ([6]; PBS in Nanosep 10 K centrifugal filter unit (no plasma), pH 7.4) was 99.7 ± 2.51%. The fraction unbound at 5 µg/mL ([6]; plasma of ALI rats) was 0.358, the fraction unbound at 5 µg/mL ([6]; plasma of CON rats) was 0.363 and the fraction unbound at 5 µg/mL ([6]; plasma of RVT rats) was 0.349.
